Data reported in patent US6872805B2 (Bristol-Myers Squibb Company, priority 2000, dated 2005).
Read-outs that look alike come from different tables or passages of the source.

Columns and labels:
[1] = system: HCV replicon in Huh7 cells; test: HCV replicon cell-based assay; parameters: species or system HCV strain 1B; settings: HCV replicon, Huh7 cells, 4 days, activity ranges, read-out: EC50
From the text: An HCV replicon whole cell system was established as described by Lohmann V, Korner F, Koch J, Herian U, Theilmann L, Bartenschlager R., Science 285(5424):110-3 (1999). This system enabled us to evaluate the effects of our HCV Protease compounds on HCV RNA replication. Briefly, using the HCV strain 1B sequence described in the Lohmann paper (Assession number:AJ238799), an HCV cDNA was generated encoding the 5′ internal ribosome entry site (IRES), the neo gene, the EMCV-IRES and the HCV nonstructural proteins, NS3-NS5B, and 3′ NTR. […] Resulting cell lines were characterized for positive and negative RNA production and protein production over time.
Huh7 cells, constitutively expressing the HCV replicon, were grown in DMEM containing 10% FCS (Fetal calf serum) and 1 mg/ml G418 (Gibco-BRL). Cells were seeded the night before (1.5×10^4 cells/well) in 96-well tissue-culture sterile plates. Compound was prepared in DMEM containing 4% FCS, 1:100 Penicillin/Streptomysin, 1:100 L-glutamine and 0.5% DMSO. Compound/DMSO mixes were added to the cells and incubated for 4 days at 37° C. After 4 days, cells were either lyzed using the Rneasy kit (Qiagen) to isolate and purify RNA for an EC50 determination or assessed for cytotoxicity using alamar Blue (Trek Diagnotstic Systems) for a CC50 reading. For an EC50 determination, purified total RNA was normalized using RiboGreen (Jones L J, Yue S T, Cheung C Y, Singer V L, Anal. Chem., 265(2):368-74 (1998)) and relative quantitation of HCV RNA expression assessed using the Taqmann procedure (Kolykhalov A A, Mihalik K, Feinstone S M, Rice C M, Journal of Virology 74, 2046-2051 (2000)). Briefly, RNA made to a volume of 5 μl (≦1 ng) was added to a 20 μl Ready-Mix containing the following: 5×EZ rTth buffer, 3 mM MnOAc2, 3 mM dNTPs, 200 nM forward primer, 600 nM reverse primer, 100 nM probe and rTth polymerase. Samples containing known concentrations of HCV RNA transcript were run as standards. Using the following cycling protocol (95° C., 1 min; 60° C., 0.5 min; 95° C., 2 min; 40 cycles of 94° C., 0.5 min, 60° C.; 1 min; and completing with 60° C., 10 min), HCV RNA expression was quantitated as described in the Perkin Elmer manual. The toxicity of compound (CC50) was determined by adding 1/10th volume of alamar Blue to the media incubating the cells. After 4 hr, the fluorescence signal from each well was read, with an excitation wavelength at 530 nm and an emission wavelength of 580 nm, using the Cytofluor Series 4000 (Perspective Biosystems).

[2] = target: HCV NS3/4A protease complex (Hepatitis C virus genotype 1a, UniProt P27958, C1454S/C1711G); test: Recombinant HCV NS3/4A protease complex FRET peptide assay (strain not stated); type: biochemical; settings: strain not stated, activity ranges
Chain of HCV NS3/4A protease complex (P27958 1027-1711, stated change not applied): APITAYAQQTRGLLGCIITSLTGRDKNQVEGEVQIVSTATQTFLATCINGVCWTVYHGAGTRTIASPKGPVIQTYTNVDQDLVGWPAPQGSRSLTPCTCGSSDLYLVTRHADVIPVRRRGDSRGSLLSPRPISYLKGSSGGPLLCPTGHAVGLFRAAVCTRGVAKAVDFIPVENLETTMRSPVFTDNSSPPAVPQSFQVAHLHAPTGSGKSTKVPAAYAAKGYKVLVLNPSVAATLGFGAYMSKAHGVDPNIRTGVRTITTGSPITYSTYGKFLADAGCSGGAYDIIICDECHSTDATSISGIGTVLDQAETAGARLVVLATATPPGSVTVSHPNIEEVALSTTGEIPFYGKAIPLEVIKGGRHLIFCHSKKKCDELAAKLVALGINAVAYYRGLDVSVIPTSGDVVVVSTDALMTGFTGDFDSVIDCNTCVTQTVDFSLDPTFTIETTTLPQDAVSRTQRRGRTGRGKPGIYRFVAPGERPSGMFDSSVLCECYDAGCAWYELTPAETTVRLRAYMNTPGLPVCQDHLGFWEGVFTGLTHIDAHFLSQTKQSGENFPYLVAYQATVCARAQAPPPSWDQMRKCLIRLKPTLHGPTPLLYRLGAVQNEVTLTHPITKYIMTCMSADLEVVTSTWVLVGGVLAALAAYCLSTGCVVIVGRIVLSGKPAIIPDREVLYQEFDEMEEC
Chain of HCV NS3/4A protease complex (P27958 1027-1711, stated change not applied): as above
From the text: The purpose of this in vitro assay was to measure the inhibition of HCV NS3 protease complexes, derived from the BMS, H77C or J416S strains, as described below, by compounds of the present invention.
Serum from an HCV-infected patient was obtained from Dr. T. Wright, San Francisco Hospital. An engineered full-length cDNA template of the HCV genome (BMS strain) was constructed from DNA fragments obtained by reverse transcription-PCR (RT-PCR) of serum RNA and using primers selected on the basis of homology between other genotype 1a strains. […] The infectious clones, H77C (1a genotype) and J4L6S (1b genotype) were obtained from R. Purcell (NIH) and the sequences are published in genebank (AAB67036, see Yanagi, M., Purcell, R. H., Emerson, S. U. and Bukh, J. Proc. Natl. Acad. Sci. U.S.A. 94(16),8738-8743 (1997); AF054247, see Yanagi, M., St Claire, M., Shapiro, M., Emerson, S. U., Purcell, R. H. and Bukh, J, Virology 244 (1), 161-172. (1998)).
The BMS, H77C and J4L6S strains were used for production of recombinant NS3/4A protease complexes. DNA encoding the recombinant HCV NS3/4A protease complex (amino acid 1027 to 1711) for these strains were manipulated as described by P. Gallinari et al. (see Gallinari P, Paolini C, Brennan D, Nardi C, Steinkuhler C, De Francesco R. Biochemistry. 38(17):5620-32, (1999)). Briefly, a three-lysine solubilizing tail was added at the 3′-end of the NS4A coding region. The cysteine in the P1 position of the NS4A-NS4B cleavage site (amino acid 1711) was changed to a glycine to avoid the proteolytic cleavage of the lysine tag. Furthermore, a cysteine to serine mutation was introduced by PCR at amino acid position 1454 to prevent the autolytic cleavage in the NS3 helicase domain. The variant DNA fragment was cloned in the pET21b bacterial expression vector and the NS3/4A complex was expressed in E. coli BL21 (DE3) following the protocol described by P. Gallinari et al. (see Gallinari P, Brennan D, Nardi C, Brunetti M, Tomei L, Steinkuhler C, De Francesco R., J Virol. 72(8):6758-69 (1998)) with modifications. Briefly, NS3/4A expression was induced with 0.5 mM IPTG for 22 hr at 20° C. […] The cells were resuspended in lysis buffer (10 mL/g) consisting of 25 mM HEPES, pH 7.5, 20% glycerol, 500 mM NaCl, 0.5% Triton-X100, 1 ug/ml lysozyme, 5 mM MgCl2, 1 ug/ml DNaseI 5 mM β-Mercaptoethanol (βME), Protease inhibitor—EDTA free, homogenized and incubated for 20 mins at 4° C. The homogenate was sonicated and clarified by ultra-centrifugation at 235000 g for 1 hr at 4° C. Imidazole was added to the supernatant to a final concentration of 15 mM and the pH adjusted to 8.0. The crude protein extract was loaded on a Ni-NTA column pre-equilibrated with buffer B (25 mM HEPES, pH 8.0, 20% glycerol, 500 mM NaCl, 0.5% Triton-X100, 15 mM imidazole, 5 mM βME). The sample was loaded at a flow rate of 1 mL/min. The column was washed with 15 column volumes of buffer C (same as buffer B except with 0.2% Triton-X100). The protein was eluted with 5 column volumes of 200 mM Imidazole in buffer.
NS3/4A protease complex-containing fractions were pooled and loaded on a desalting column Superdex-S200 pre-equilibrated with buffer D (25 mM HEPES, pH 7.5, 20% glycerol, 300 mM NaCl, 0.2% Triton-X100, 10 mM βME). Sample was loaded at a flow rate of 1 mL/min. NS3/4A protease complex-containing fractions were pooled and concentrated to approximately 0.5 mg/ml.

[3] = IC50, NS3/4A protease enzyme assay

| Molecule | EC50 [1] | IC50 ([2]; NS3/4A protease enzyme assay, read-out: IC50) | EC50 ([1]; Hepatitis C virus, Huh-7, 96 h) | IC50 [2, 3] |
| --- | --- | --- | --- | --- |
| 1-[2S-(4-fluoro-benzenesulfonylamino)-3,3-dimethyl-butyryl]-4R-(7-methoxy-2-phenylquinolin-4-yloxy)-pyrrolidine-2S-carboxylic acid (1R-cyclopropanesulfonylaminocarbonyl -2S-vinyl-cyclopropyl)amide [Compound 119] | < 500 nM | < 50 nM |  |  |
| CCC1C[C@]1(NC(=O)[C@@H]1C[C@@H](Oc2cc(-c3ccccc3)nc3cc(OC)ccc23)CN1C(=O)[C@@H](NC(=O)OC(C)(C)C)C(C)(C)C)C(=O)NS(=O)(=O)C1CC1 (stereo in doubt) [Compound 2, {1-[2-(1-cyclopropanesulfonylamino-carbonyl-2-ethylcyclopropylcarbamoyl)-4-(7-methoxy-2-phenyl-quinolin-4-yloxy)-pyrrolidine-1-carbonyl]-2,2-dimethylpropyl}carbamic acid tert-butyl ester] |  |  | < 50 nM | < 50 nM |
| CCC1C[C@]1(NC(=O)[C@@H]1C[C@@H](Oc2cc(-c3ccccc3)nc3cc(OC)ccc23)CN1C(=O)[C@@H](NC(=O)OC(C)(C)C)C(C)C)C(=O)NS(=O)(=O)C1CC1 (stereo in doubt) [Compound 3, {1-[2-(1-cyclopropanesulfonylaminocarbonyl-2-ethylcyclopropylcarbamoyl)-4-(7-methoxy-2-phenylquinolin-4-yloxy)pyrrolidine-1-carbonyl]-2-methylpropyl}carbamic acid tert-butyl ester] |  |  | < 50 nM | < 50 nM |
| CCC1C[C@]1(NC(=O)[C@@H]1C[C@@H](Oc2cc(-c3ccccc3)nc3cc(OC)ccc23)CN1C(=O)[C@@H](NC(=O)CC1CC1)C(C)C)C(=O)NS(=O)(=O)C1CC1 (stereo in doubt) [Compound 5, 1-[2-(2-cyclopropylacetylamino)-3-methylbutyryl]-4-(7-methoxy-2-phenylquinolin-4-yloxy)pyrrolidine-2-carboxylic acid (1-cyclopropanesulfonylaminocarbonyl-2-ethylcyclopropyl)amide] |  |  | < 50 nM | < 50 nM |
| CCCNC(=O)N[C@H](C(=O)N1C[C@H](Oc2cc(-c3ccccc3)nc3cc(OC)ccc23)C[C@H]1C(=O)N[C@]1(C(=O)NS(=O)(=O)C2CC2)CC1CC)C(C)C (stereo in doubt) [Compound 8, 4-(7-methoxy-2-phenylquinolin-4-yloxy)-1-[3-methyl-2-(3-propylureido)butyryl]pyrrolidine-2-carboxylic acid (1-cyclopropanesulfonylaminocarbonyl-2-ethylcyclopropyl)amide] |  |  | < 50 nM | < 50 nM |
| C=CC1C[C@]1(NC(=O)[C@@H]1C[C@@H](Oc2cc(-c3ccccc3)nc3cc(OC)ccc23)CN1C(=O)[C@@H](NC(=O)OC(C)(C)C)C(C)(C)C)C(=O)NS(=O)(=O)C1CC1 (stereo in doubt) [Compound 10, {1-[2-(1-Cyclopropanesulfonylaminocarbonyl-2-vinylcyclopropylcarbamoyl)-4-(7-methoxy-2-phenylquinolin-4-yloxy)-pyrrolidine-1-carbonyl]-2,2-dimethylpropyl}carbamic acid tert-butyl ester] |  |  | < 50 nM | < 50 nM |
| C=CC1C[C@]1(NC(=O)[C@@H]1C[C@@H](Oc2cc(-c3ccccc3)nc3cc(OC)ccc23)CN1C(=O)[C@@H](NC(=O)OC(C)(C)C)C(C)(C)C)C(=O)NS(=O)(=O)C1CCC1 (stereo in doubt) [Compound 11, {1-[2-(1-Cyclobutanesulfonylaminocarbonyl-2-vinylcyclo-propylcarbamoyl)-4-(7-methoxy-2-phenylquinolin-4-yloxy)-pyrrolidine-1-carbonyl]-2,2-dimethylpropyl}carbamic acid tert-butyl ester] |  |  | < 50 nM | < 50 nM |
| C=CC1C[C@]1(NC(=O)[C@@H]1C[C@@H](Oc2cc(-c3ccccc3)nc3cc(OC)ccc23)CN1C(=O)[C@@H](NC(=O)OC(C)(C)C)C(C)(C)C)C(=O)NS(=O)(=O)C1CCCC1 (stereo in doubt) [Compound 12, {1-[2-(1-Cyclopentanesulfonylaminocarbonyl-2-vinylcyclopropylcarbamoyl)-4-(7-methoxy-2-phenylquinolin-4-yloxy)-pyrrolidine-1-carbonyl]-2,2-dimethylpropyl}carbamic acid tert-butyl ester] |  |  | < 500 nM | < 500 nM |
| C=CC1C[C@]1(NC(=O)[C@@H]1C[C@@H](Oc2cc(-c3ccccc3)nc3cc(OC)ccc23)CN1C(=O)[C@@H](NC(=O)OC(C)(C)C)C(C)(C)C)C(=O)NS(=O)(=O)C1CCCCC1 (stereo in doubt) [Compound 13, {1-[2-(1-Cyclohexanesulfonylaminocarbonyl-2-vinylcyclopropylcarbamoyl)-4-(7-methoxy-2-phenylquinolin-4-yloxy)pyrrolidine-1-carbonyl]-2,2-dimethylpropyl}carbamic acid tert-butyl ester] |  |  | < 500 nM | < 500 nM |
| C=CC1C[C@]1(NC(=O)[C@@H]1C[C@@H](Oc2cc(-c3ccccc3)nc3cc(OC)ccc23)CN1C(=O)[C@@H](NC(=O)OC(C)(C)C)C(C)(C)C)C(=O)NS(=O)(=O)CC(C)(C)C (stereo in doubt) [Compound 14, {1-[2-[1-(2,2-Dimethylpropane-1-sulfonylaminocarbonyl)-2-vinylcyclopropylcarbamoyl]-4-(7-methoxy-2-phenylquinolin-4-yloxy)pyrrolidine-1-carbonyl]-2,2-dimethylpropyl}-carbamic acid tert-butyl ester] |  |  | < 500 nM | < 500 nM |
